Reference: PubChem BioAssay (NCI)
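Results reflect a 48-hour exposure of cells in 96-well plates to compound at five concentrations. TGI marks complete inhibition of growth.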

Legend:
Assay in all cases: NCI tumour cell line growth inhibition, 48 h
HOP-18 NSCLC = tested on: HOP-18 NSCLC
LXFL 529 NSCLC = tested on: LXFL 529 NSCLC
DMS 114 small cell lung = tested on: DMS 114 small cell lung
DMS 273 small cell lung = tested on: DMS 273 small cell lung
KM20L2 colon = tested on: KM20L2 colon
SNB-78 CNS = tested on: SNB-78 CNS
XF 498 CNS = tested on: XF 498 CNS
P388 leukemia = tested on: P388 leukemia
P388/ADR leukemia = tested on: P388/ADR leukemia
SN12K1 renal = tested on: SN12K1 renal
RXF-631 renal = tested on: RXF-631 renal

Structure (SMILES)	TGI (HOP-18 NSCLC) [µM]	TGI (LXFL 529 NSCLC) [µM]	TGI (DMS 114 small cell lung) [µM]	TGI (DMS 273 small cell lung) [µM]	TGI (KM20L2 colon) [µM]	TGI (SNB-78 CNS) [µM]	TGI (XF 498 CNS) [µM]	TGI (P388 leukemia) [µM]	TGI (P388/ADR leukemia) [µM]	TGI (SN12K1 renal) [µM]	TGI (RXF-631 renal) [µM]
CC(=O)Nc1ccc(C(=O)NN2C(=O)C(Cl)C2/C=C/c2ccccc2)cc1 (configuration not stated)	> 100	> 100									
O=C(O)c1cc2sc(C(=O)O)cc2s1		> 100	> 100	> 100	> 100	> 100	> 100				
CSc1nc(NC2OC(CO)C(O)C(O)C2O)c(N)c(=O)[nH]1 (configuration not stated)	> 100		> 100	> 100	> 100	> 100	> 100	> 100	> 100	> 100	
COC(=O)C(Cc1cc(OC)c(OC)c(OC)c1)(NC(=O)c1ccccc1)P(=O)(OC)OC (configuration not stated)		> 100	> 100	> 100	> 100	> 100	> 100				> 100
COc1ccc(Nc2cnc3cc(N)ccc3n2)cc1OC		> 100	> 100	> 100	> 100		> 100				
O=[N+]([O-])c1cnccc1-n1nnc2ccccc21	> 100		26.6	27.2	> 100	> 100	27.1	30.3		> 95.5	
